This note sets out measurements from the NIST ThermoML archive (doi:10.1021/je050195w).

For this data set the following is noted: Crystal; DTA.

Numbers after ± are expanded uncertainties.

Consider `CC(=O)[C@@]12O[C@@H]1C[C@H]1[C@@H]3CCC4=CC(=O)CC[C@]4(C)[C@H]3CC[C@@]12C` [16α,17-epoxypregn-4-ene-3,20-dione], for which the Normal melting temperature turned out to be 205.50 ± 1.1 °C.
